# Columns and labels:
# [1] = Induction of apoptosis in mouse EAC cells at 125 uM after 24 hrs by acridine orange dye-based fluorescence microscopy (reference value: 0.66 +/- 0.33%); type: cell-based; settings: ehrlich
# [2] = Cytotoxicity against human NCI-ADR-RES cells assessed as growth inhibition after 48 hrs by SRB assay; type: functional
# [3] = Cytotoxicity against human MDA-MB-468 cells assessed as assessed as growth inhibition at 10^-5 M after 48 hrs by SRB assay relative to control; type: functional; settings: MDA-MB-468, 48 h, read-out: GI
# [4] = Cytotoxicity against human RXF393 cells assessed as assessed as growth inhibition at 10^-5 M after 48 hrs by SRB assay relative to control; type: functional; settings: RXF 393, 48 h, read-out: GI
# [5] = Cytotoxicity against human SK-MEL-2 cells assessed as assessed as growth inhibition at 10^-5 M after 48 hrs by SRB assay relative to control; type: functional; settings: SK-MEL-2, 48 h, read-out: GI
# [6] = Cytotoxicity against human UACC257 cells assessed as assessed as growth inhibition at 10^-5 M after 48 hrs by SRB assay relative to control; type: functional; settings: UACC-257, 48 h, read-out: GI
# [7] = Cytotoxicity against human SF539 cells assessed as growth inhibition after 48 hrs by SRB assay; type: functional; settings: SF-539, 48 h
# [8] = Cytotoxicity against human LOXIMVI cells assessed as growth inhibition after 48 hrs by SRB assay; type: functional; settings: LOX IMVI
# [9] = Cytotoxicity against human SNB19 cells assessed as growth inhibition after 48 hrs by SRB assay; type: functional; settings: SNB-19, 48 h
# [10] = Cytotoxicity against human UACC62 cells assessed as assessed as growth inhibition at 10^-5 M after 48 hrs by SRB assay relative to control; type: functional; settings: UACC-62, 48 h, read-out: GI
# [11] = Cytotoxicity against human SN12C cells assessed as assessed as growth inhibition at 10^-5 M after 48 hrs by SRB assay relative to control; type: functional; settings: read-out: GI
# [12] = Cytotoxicity against human SF268 cells assessed as assessed as growth inhibition at 10^-5 M after 48 hrs by SRB assay relative to control; type: functional; settings: SF-268, 48 h, read-out: GI
# [13] = Cytotoxicity against human MDA-MB-231 cells assessed as assessed as growth inhibition at 10^-5 M after 48 hrs by SRB assay relative to control; type: functional; settings: MDA-MB-231, 48 h, read-out: GI
# Mus musculus = species on record: Mus musculus; assay: Genotoxicity in mouse EAC cells at 500 uM after 24 hrs by micronucleus assay (reference value: 3.5 +/- 0.30%); type: toxicity, cell-based; settings: ehrlich
# [14] = Cytotoxicity against human HL-60(TB) cells assessed as growth inhibition after 48 hrs by SRB assay; type: functional; settings: HL-60, 48 h
# [15] = Cytotoxicity against human HOP62 cells assessed as assessed as growth inhibition at 10^-5 M after 48 hrs by SRB assay relative to control; type: functional; settings: HOP-62, 48 h, read-out: GI
# [16] = Induction of apoptosis in mouse EAC cells at 500 uM after 24 hrs by acridine orange dye-based fluorescence microscopy (reference value: 0.66 +/- 0.33%); type: cell-based; settings: ehrlich
# [17] = Cytotoxicity against human UACC257 cells assessed as growth inhibition after 48 hrs by SRB assay; type: functional; settings: UACC-257, 48 h
# [18] = Cytotoxicity against human OVCAR5 cells assessed as assessed as growth inhibition at 10^-5 M after 48 hrs by SRB assay relative to control; type: functional; settings: OVCAR-5, 48 h, read-out: GI
# [19] = Cytotoxicity against human OVCAR5 cells assessed as growth inhibition after 48 hrs by SRB assay; type: functional; settings: OVCAR-5, 48 h
# [20] = Cytotoxicity against human KM12 cells assessed as growth inhibition after 48 hrs by SRB assay; type: functional; settings: KM12, 48 h
# [21] = Cytotoxicity against human 786-0 cells assessed as growth inhibition after 48 hrs by SRB assay; type: functional; settings: 786-0, 48 h
# [22] = Cytotoxicity against human PC3 cells assessed as assessed as growth inhibition at 10^-5 M after 48 hrs by SRB assay relative to control; type: functional; settings: PC-3, 48 h, read-out: GI
# [23] = Cytotoxicity against human SK-MEL-5 cells assessed as growth inhibition after 48 hrs by SRB assay; type: functional; settings: SK-MEL-5, 48 h
# [24] = Cytotoxicity against human OVCAR8 cells assessed as growth inhibition after 48 hrs by SRB assay; type: functional; settings: OVCAR-8, 48 h
# [25] = Cytotoxicity against human RPMI8226 cells assessed as growth inhibition after 48 hrs by SRB assay; type: functional; settings: RPMI-8226, 48 h
# [26] = Cytotoxicity against human SK-MEL-2 cells assessed as growth inhibition after 48 hrs by SRB assay; type: functional; settings: SK-MEL-2, 48 h
# [27] = Cytotoxicity against human PC3 cells assessed as growth inhibition after 48 hrs by SRB assay; type: functional; settings: PC-3, 48 h
# [28] = Cytotoxicity against human EKVX cells assessed as growth inhibition after 48 hrs by SRB assay; type: functional
# [29] = Cytotoxicity against human OVCAR3 cells assessed as growth inhibition after 48 hrs by SRB assay; type: functional; settings: OVCAR-3, 48 h
# [30] = Cytotoxicity against human Caki1 cells assessed as growth inhibition after 48 hrs by SRB assay; type: functional; settings: CAKI-1, 48 h
# [31] = Cytotoxicity against human HT-29 cells assessed as growth inhibition after 48 hrs by SRB assay; type: functional; settings: HT-29, 48 h
# [32] = Cytotoxicity against human SNB19 cells assessed as assessed as growth inhibition at 10^-5 M after 48 hrs by SRB assay relative to control; type: functional; settings: SNB-19, 48 h, read-out: GI
# [33] = read-out: LD50 (the source's name)
smiles,measurement,setting,value
O=C1Cc2cc(CCN3CCNCC3)c(Cl)cc2N1,Activity,[1],1%
same,GI50,[2],5110 nM
same,TGI,[2],> 1000 nM
same,CC50,[2]; [33],> 1000 nM
same,inhibition of growth at 10 µM,[3],89%
same,inhibition of growth at 10 µM,[4],60.1%
same,inhibition of growth at 10 µM,[5],53.9%
same,inhibition of growth at 10 µM,[6],48%
same,GI50,[7],1000 nM
same,TGI,[7],> 1000 nM
same,CC50,[7]; [33],> 1000 nM
same,GI50,[8],1000 nM
same,TGI,[8],> 1000 nM
same,CC50,[8]; [33],> 1000 nM
same,GI50,[9],2370 nM
same,TGI,[9],> 1000 nM
same,CC50,[9]; [33],> 1000 nM
same,inhibition of growth at 10 µM,[10],44.8%
same,inhibition of growth at 10 µM,[11],52.8%
same,inhibition of growth at 10 µM,[12],27.9%
same,inhibition of growth at 10 µM,[13],64.1%
same,Activity,Mus musculus,6.26%
same,GI50,[14],4300 nM
same,TGI,[14],> 1000 nM
same,CC50,[14]; [33],> 1000 nM
same,inhibition of growth at 10 µM,[15],43.7%
same,Activity,[16],0.86%
same,GI50,[17],6520 nM
same,TGI,[17],> 1000 nM
same,CC50,[17]; [33],> 1000 nM
same,inhibition of growth at 10 µM,[18],34.7%
same,GI50,[19],7920 nM
same,TGI,[19],> 1000 nM
same,CC50,[19]; [33],> 1000 nM
same,GI50,[20],3960 nM
same,TGI,[20],> 1000 nM
same,CC50,[20]; [33],> 1000 nM
same,GI50,[21],1000 nM
same,TGI,[21],> 1000 nM
same,CC50,[21]; [33],> 1000 nM
same,inhibition of growth at 10 µM,[22],16.5%
same,GI50,[23],5330 nM
same,TGI,[23],> 1000 nM
same,CC50,[23]; [33],> 1000 nM
same,GI50,[24],3680 nM
same,TGI,[24],> 1000 nM
same,CC50,[24]; [33],> 1000 nM
same,GI50,[25],6030 nM
same,TGI,[25],> 1000 nM
same,CC50,[25]; [33],> 1000 nM
same,GI50,[26],1520 nM
same,TGI,[26],> 1000 nM
same,CC50,[26]; [33],> 1000 nM
same,GI50,[27],9830 nM
same,TGI,[27],> 1000 nM
same,CC50,[27]; [33],> 1000 nM
same,GI50,[28],3580 nM
same,TGI,[28],> 1000 nM
same,CC50,[28]; [33],> 1000 nM
same,GI50,[29],1410 nM
same,TGI,[29],> 1000 nM
same,CC50,[29]; [33],> 1000 nM
same,GI50,[30],6110 nM
same,TGI,[30],> 1000 nM
same,CC50,[30]; [33],> 1000 nM
same,GI50,[31],1000 nM
same,TGI,[31],> 1000 nM
same,CC50,[31]; [33],> 1000 nM
same,inhibition of growth at 10 µM,[32],42.4%
